Data from PubChem BioAssay AID180 (DTP/NCI, 2004).
“And” between values parts separate entries of the source, which are not always exact repeats. Equal entries are not always repeated.

System: BDF1 mice, Adenocarcinoma 755 s.c., tumor weight T/C
Test: NCI In Vivo Anticancer Drug Screen. Data for tumor model Adenocarcinoma 755 (subcutaneous) in B6D2F1 (BDF1) mice
Conditions: endpoint: mean tumor weight, higher = larger tumour
Procedure, shortened: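 Readout: T/C, i.e. treated-group measurement over vehicle-control measurement. Endpoint is survival or tumor size in tumor-bearing mice given compound.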

SMILES: COc1ccc(-c2c(C)c(C(=O)O)nc(-c3ccc4c(O)c(OC)c5c(c4n3)=NC(C)(C)N=5)c2N)c(O)c1OC
- T/C (dose: 2.5 mg/kg/injection, schedule: Q01DX011 (ip), vehicle: water): 26 % of control
- T/C (dose: 2.5 mg/kg/injection, schedule: Q01DX011 (oral), vehicle: water): 6 % of control
- T/C (dose: 2.5 mg/kg/injection, schedule: Q## X006 (ip), vehicle: water): 59 % of control
- T/C (dose: 2.5 mg/kg/injection, schedule: Q## X006 (oral), vehicle: water): 43 % of control
- T/C (dose: 2.5 mg/kg/injection, schedule: Q#A X022 (ip), vehicle: water): 51 % of control
- T/C (dose: 5.0 mg/kg/injection, schedule: Q01DX005 (iv), vehicle: water): 58 % of control
- T/C (dose: 5.0 mg/kg/injection, schedule: Q01DX006 (ip), vehicle: water): 64 % of control
- T/C (dose: 5.0 mg/kg/injection, schedule: Q01DX011 (im), vehicle: water): 64 % of control
- T/C (dose: 5.0 mg/kg/injection, schedule: Q01DX011 (ip), vehicle: water): 5 % of control
- T/C (dose: 5.0 mg/kg/injection, schedule: Q01DX011 (oral), vehicle: water): 2 % of control
- T/C (dose: 5.0 mg/kg/injection, schedule: Q01DX011 (sc), vehicle: water): 13 % of control
- T/C (dose: 5.0 mg/kg/injection, schedule: Q## X006 (ip), vehicle: water): 57 % of control
- T/C (dose: 5.0 mg/kg/injection, schedule: Q## X006 (oral), vehicle: water): 79 % of control
- T/C (dose: 5.0 mg/kg/injection, schedule: Q#A X022 (ip), vehicle: water): 21 % of control
- T/C (dose: 7.5 mg/kg/injection, schedule: Q01DX006 (ip), vehicle: water): 63 % of control
- T/C (dose: 7.5 mg/kg/injection, schedule: Q#A X022 (ip), vehicle: water): 9 % of control
- T/C (dose: 8.0 mg/kg/injection, schedule: Q01DX011 (ip), vehicle: water): 50 % of control
- T/C (dose: 10.0 mg/kg/injection, schedule: Q01DX005 (iv), vehicle: water): 26 % of control
- T/C (dose: 10.0 mg/kg/injection, schedule: Q01DX006 (ip), vehicle: water): 28 % of control
- T/C (dose: 10.0 mg/kg/injection, schedule: Q01DX011 (im), vehicle: water): 13 % of control
- T/C (dose: 10.0 mg/kg/injection, schedule: Q01DX011 (sc), vehicle: water): 15 % of control
- T/C (dose: 10.0 mg/kg/injection, schedule: Q## X006 (ip), vehicle: water): 19 % of control
- T/C (dose: 10.0 mg/kg/injection, schedule: Q## X006 (oral), vehicle: water): 44 % of control
- T/C (dose: 12.0 mg/kg/injection, schedule: Q03DX004 (ip), vehicle: water): 62 % of control
- T/C (dose: 13.0 mg/kg/injection, schedule: Q01DX011 (ip), vehicle: water): 10 % of control
- T/C (dose: 15.0 mg/kg/injection, schedule: Q01DX005 (iv), vehicle: water): 6 % of control
- T/C (dose: 15.0 mg/kg/injection, schedule: Q01DX011 (im), vehicle: water): 10 % of control
- T/C (dose: 15.0 mg/kg/injection, schedule: Q01DX011 (sc), vehicle: water): 4 % of control
- T/C (dose: 18.0 mg/kg/injection, schedule: Q03DX004 (ip), vehicle: water): 38 % of control
- T/C (dose: 20.0 mg/kg/injection, schedule: Q01DX011 (ip), vehicle: water): 6 % of control
- T/C (dose: 20.0 mg/kg/injection, schedule: Q## X006 (ip), vehicle: water): 39 % of control
- T/C (dose: 20.0 mg/kg/injection, schedule: Q## X006 (oral), vehicle: water): 20 % of control
- T/C (dose: 22.0 mg/kg/injection, schedule: Q07DX002 (ip), vehicle: water): 48 % of control
- T/C (dose: 22.5 mg/kg/injection, schedule: Q01DX005 (iv), vehicle: water): 2 % of control
- T/C (dose: 22.5 mg/kg/injection, schedule: Q01DX011 (im), vehicle: water): 1 % of control
- T/C (dose: 27.0 mg/kg/injection, schedule: Q03DX004 (ip), vehicle: water): 4 % of control
- T/C (dose: 34.0 mg/kg/injection, schedule: Q01DX001 (ip), vehicle: water): 45 % of control and 50 % of control
- T/C (dose: 35.0 mg/kg/injection, schedule: Q07DX002 (ip), vehicle: water): 55 % of control
- T/C (dose: 44.0 mg/kg/injection, schedule: Q01DX001 (ip), vehicle: water): 52 % of control and 57 % of control
- T/C (dose: 50.0 mg/kg/injection, schedule: Q07DX002 (ip), vehicle: water): 8 % of control
- T/C (dose: 67.0 mg/kg/injection, schedule: Q01DX001 (ip), vehicle: water): 18 % of control

SMILES: CC(=O)Nc1c(Cl)cc2c(c1Cl)Cc1cc([N+](=O)[O-])ccc1-2
- T/C (dose: 0.8 mg/kg/injection, schedule: Q01DX011 (ip), vehicle: carboxymethylcellulose (CMC)): 32 % of control
- T/C (dose: 1.6 mg/kg/injection, schedule: Q01DX011 (ip), vehicle: carboxymethylcellulose (CMC)): 47 % of control
- T/C (dose: 3.0 mg/kg/injection, schedule: Q01DX011 (ip), vehicle: other): 61 % of control
- T/C (dose: 3.12 mg/kg/injection, schedule: Q01DX011 (ip), vehicle: carboxymethylcellulose (CMC)): 25 % of control
- T/C (dose: 6.0 mg/kg/injection, schedule: Q01DX011 (ip), vehicle: other): 87 % of control
- T/C (dose: 6.25 mg/kg/injection, schedule: Q01DX011 (ip), vehicle: carboxymethylcellulose (CMC)): 31 % of control and 33 % of control
- T/C (dose: 6.25 mg/kg/injection, schedule: Q01DX011 (ip), vehicle: other): 59 % of control
- T/C (dose: 12.5 mg/kg/injection, schedule: Q01DX011 (ip), vehicle: carboxymethylcellulose (CMC)): 15 % of control
- T/C (dose: 12.5 mg/kg/injection, schedule: Q01DX011 (ip), vehicle: other): 22 % of control and 35 % of control
- T/C (dose: 25.0 mg/kg/injection, schedule: Q01DX011 (ip), vehicle: carboxymethylcellulose (CMC)): 9 % of control
- T/C (dose: 25.0 mg/kg/injection, schedule: Q01DX011 (ip), vehicle: other): 24 % of control and 45 % of control
- T/C (dose: 50.0 mg/kg/injection, schedule: Q01DX011 (ip), vehicle: carboxymethylcellulose (CMC)): 9 % of control
- T/C (dose: 50.0 mg/kg/injection, schedule: Q01DX011 (ip), vehicle: other): 31 % of control and 35 % of control
- T/C (dose: 100.0 mg/kg/injection, schedule: Q01DX011 (ip), vehicle: carboxymethylcellulose (CMC)): 8 % of control
- T/C (dose: 100.0 mg/kg/injection, schedule: Q01DX011 (ip), vehicle: other): 30 % of control
- T/C (dose: 200.0 mg/kg/injection, schedule: Q01DX011 (ip), vehicle: carboxymethylcellulose (CMC)): 6 % of control and 25 % of control
- T/C (dose: 200.0 mg/kg/injection, schedule: Q01DX011 (ip), vehicle: other): 26 % of control
- T/C (dose: 300.0 mg/kg/injection, schedule: Q01DX011 (ip), vehicle: carboxymethylcellulose (CMC)): 6 % of control
- T/C (dose: 400.0 mg/kg/injection, schedule: Q01DX011 (ip), vehicle: other): 20 % of control

SMILES: Nc1n[nH]c(N)n1
- T/C (dose: 300.0 mg/kg/injection, schedule: Q01DX011 (ip), vehicle: methylcellulose (MC)): 55 % of control
- T/C (dose: 400.0 mg/kg/injection, schedule: Q01DX011 (ip), vehicle: methylcellulose (MC)): 58 % of control
- T/C (dose: 500.0 mg/kg/injection, schedule: Q01DX011 (ip), vehicle: methylcellulose (MC)): 44 % of control

SMILES: C[C@]12CCC(=O)C=C1CC[C@@H]1[C@@H]2[C@@H](O)C[C@@]2(C)[C@H]1CC[C@]2(O)C(=O)COC(=O)c1ccc([N+](=O)[O-])cc1Cl
- T/C (dose: 25.0 mg/kg/injection, schedule: Q01DX011 (sc), vehicle: water): 43 % of control
- T/C (dose: 50.0 mg/kg/injection, schedule: Q01DX011 (sc), vehicle: water): 17 % of control
- T/C (dose: 100.0 mg/kg/injection, schedule: Q01DX011 (sc), vehicle: water): 23 % of control
- T/C (dose: 200.0 mg/kg/injection, schedule: Q01DX011 (sc), vehicle: water): 4 % of control

SMILES: O=c1ccn(C2OC(CO)C(O)C2O)c(=O)[nH]1 (stereo not drawn)
- T/C (dose: 17.5 mg/kg/injection, schedule: Q01DX011 (ip), vehicle: other): 57 % of control
- T/C (dose: 35.0 mg/kg/injection, schedule: Q01DX011 (ip), vehicle: other): 39 % of control
- T/C (dose: 35.0 mg/kg/injection, schedule: Q01DX011 (ip), vehicle: saline): 30 % of control
- T/C (dose: 70.0 mg/kg/injection, schedule: Q01DX011 (ip), vehicle: other): 105 % of control
- T/C (dose: 70.0 mg/kg/injection, schedule: Q01DX011 (ip), vehicle: saline): 75 % of control
- T/C (dose: 140.0 mg/kg/injection, schedule: Q01DX011 (ip), vehicle: other): 82 % of control
- T/C (dose: 140.0 mg/kg/injection, schedule: Q01DX011 (ip), vehicle: saline): 32 % of control
- T/C (dose: 280.0 mg/kg/injection, schedule: Q01DX011 (ip), vehicle: other): 56 % of control
- T/C (dose: 280.0 mg/kg/injection, schedule: Q01DX011 (ip), vehicle: saline): 42 % of control

SMILES: O=C(Nc1ccc(C2=NCCN2)cc1)c1cc(Cl)c(C(=O)Nc2ccc(C3=NCCN3)cc2)cc1Cl
- T/C (dose: 15.0 mg/kg/injection, schedule: Q01DX011 (ip), vehicle: methylcellulose (MC)): 105 % of control
- T/C (dose: 30.0 mg/kg/injection, schedule: Q01DX011 (ip), vehicle: methylcellulose (MC)): 68 % of control
